We go through six molecules from patent publication US20240158446A1, “CYCLIC COMPOUND HAVING SELECTIVE INHIBITORY ACTION ON KRAS OVER HRAS AND NRAS” (CHUGAI SEIYAKU KABUSHIKI KAISHA, priority 2021, published 2024).

As usually defined, the Kd is the equilibrium constant for the complex coming apart.

Test [1] deals with GDP-bound KRAS wild-type protein (Homo sapiens, UniProt P01116). The experiment in a line: Binding to KRAS by surface plasmon resonance (SPR), Single Cycle Kinetics. The following applies: GDP-bound KRAS wild-type protein, read-out: KRAS KD. (In general: Surface plasmon resonance follows binding to a sensor surface in real time, without labels.)
Test [2] concerns the target GDP-bound NRAS wild-type protein (Homo sapiens, UniProt P01111). The experiment in a line: Binding to NRAS by surface plasmon resonance (SPR), Single Cycle Kinetics.
In test [3] the target is GDP-bound HRAS wild-type protein (Homo sapiens, UniProt P01112). Put plainly: Binding to HRAS by surface plasmon resonance (SPR), Single Cycle Kinetics.
[4] abbreviates: SPR, GDP-bound NRAS wild-type protein vs GDP-bound KRAS wild-type protein.
The mark [5] stands for this setting: SPR, GDP-bound HRAS wild-type protein vs GDP-bound KRAS wild-type protein.
[6] abbreviates: SPR Single Cycle Kinetics, 1:1 binding model.

Read-outs that look alike come from different tables or passages of the source. *1 amine or outer side, *2 acyl side, *3 side chain or, on linkers, in order; H or OH if unused. Where a SMILES comes first, the peptide text is derived from it. Bridges are numbered along the chain shown (N, C = ends). [ ]: non-standard residue; d: D form. The star is where a group is joined. hPhe(3-Cl-4-CF3) = N[C@@H](CCc1ccc(C(F)(F)F)c(Cl)c1)C(=O)O; X5 = C=CCN([C@@H](Cc1ccc(C(F)(F)F)cc1)C(=O)[*:2])[*:1]; NPrPhe(4-CF3) = CCCN[C@@H](Cc1ccc(C(F)(F)F)cc1)C(=O)O; NMeGly(cPent) = CN[C@H](C(=O)O)C1CCCC1; Aze(3S-Me) = C[C@H]1CN[C@@H]1C(=O)O; NMeD = CN[C@@H](CC(=O)O)C(=O)O; NMeL = CN[C@@H](CC(C)C)C(=O)O; Morpholide = C1CN(*)CCO1; NMeA = CN[C@@H](C)C(=O)O; Ac5c = NC1(C(=O)O)CCCC1; Aze = O=C(O)[C@@H]1CCN1; Ac4c = NC1(C(=O)O)CCC1; Sar = CNCC(=O)O

GDP-bound HRAS wild-type protein, sequence (P01112 whole entry): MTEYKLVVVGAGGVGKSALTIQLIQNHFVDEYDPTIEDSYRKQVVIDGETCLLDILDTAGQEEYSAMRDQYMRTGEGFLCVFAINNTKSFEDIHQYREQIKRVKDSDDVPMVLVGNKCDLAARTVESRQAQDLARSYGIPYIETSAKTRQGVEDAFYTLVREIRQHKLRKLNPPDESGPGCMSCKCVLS
GDP-bound NRAS wild-type protein, sequence (P01111 whole entry): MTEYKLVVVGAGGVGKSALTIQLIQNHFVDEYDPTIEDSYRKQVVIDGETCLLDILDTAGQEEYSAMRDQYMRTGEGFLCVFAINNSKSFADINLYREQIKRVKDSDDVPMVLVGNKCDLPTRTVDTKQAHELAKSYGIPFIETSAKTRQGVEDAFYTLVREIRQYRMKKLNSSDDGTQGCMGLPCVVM
GDP-bound KRAS wild-type protein, sequence (P01116 whole entry): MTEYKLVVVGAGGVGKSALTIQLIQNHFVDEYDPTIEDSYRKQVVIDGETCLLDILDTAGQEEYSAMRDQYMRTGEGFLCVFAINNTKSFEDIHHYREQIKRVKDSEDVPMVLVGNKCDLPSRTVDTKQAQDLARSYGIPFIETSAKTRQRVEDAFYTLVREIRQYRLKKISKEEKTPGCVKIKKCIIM

For `CCCN1CC(=O)N(C)[C@H]2C/C=C\CCN(C2=O)[C@@H](Cc2ccc(C(F)(F)F)cc2)C(=O)N(C)CC(=O)N[C@@H](CCc2cc(F)c(C(F)(F)F)c(F)c2)C(=O)N2C[C@H](OCC)C[C@H]2C(=O)NC2(CCC2)C(=O)N(C)[C@@H](C2CCCC2)C(=O)N(C)[C@H](C(=O)N(C)C)CC(=O)N(C)[C@@H](CC)C(=O)N[C@@H]([C@@H](C)CC)C1=O` [PP1053], the Kd in test [1] (SPR, Single Cycle Kinetics) was 230 pM. The “NRAS/KRAS (ratio of KD value for NRAS to KD value for KRAS)” value in test [2] (setting [4]) was “A (a compound having 10 or more and less than 20 is denoted as A)”. Besides, the “HRAS/KRAS (ratio of KD value for HRAS to KD value for KRAS)” value in test [3] (setting [5]) was “A (a compound having 10 or more and less than 20 is denoted as A)”.
Turning to `C=CCN1C(=O)[C@@H]2CCN2C(=O)[C@H](C)N(C)C(=O)[C@H]([C@@H](C)CC)NC(=O)[C@H](CC(C)C)N(C)C(=O)C[C@@H](C(=O)N2CCOCC2)N(C)C(=O)[C@H](C2CCCC2)N(C)C(=O)C2(CCCC2)NC(=O)[C@@H]2CCCN2C(=O)[C@H](CCc2ccc(C(F)(F)F)c(Cl)c2)NC(=O)CN(C)C(=O)[C@@H]1Cc1ccc(C(F)(F)F)cc1` [PP0114] ([NMeL]I[NMeA][Aze][X5][Sar][hPhe(3-Cl-4-CF3)]P[Ac5c][NMeGly(cPent)][NMeD]-Morpholide; lactam N-11), in test [1] (setting [6]), the Kd was 160 pM. Also, the “NRAS/KRAS (ratio of KD value for NRAS to KD value for KRAS)” value in test [2] (setting [4]) is “C (A compound having a KD ratio of 0.1 or more and less than 3 is denoted as C)”. In addition, the “HRAS/KRAS (ratio of KD value for HRAS to KD value for KRAS)” value in test [3] (setting [5]) was “C (A compound having a KD ratio of 0.1 or more and less than 3 is denoted as C)”.
Turning to `CC[C@H](C)[C@@H]1NC(=O)[C@H](CC(C)C)N(C)C(=O)C[C@@H](C(=O)N2CCOCC2)N(C)C(=O)[C@H](C2CCCC2)N(C)C(=O)C2(CCC2)NC(=O)[C@@H]2C[C@@H](C(F)(F)F)CN2C(=O)[C@H](CCc2cc(F)c(C(F)(F)F)c(F)c2)NC(=O)CN(C)C(=O)[C@H](Cc2ccc(C(F)(F)F)cc2)N2CCCC[C@@H](C2=O)N(C)C(=O)CN(C)C1=O` [PP0809], in test [1] (setting [6]), the Kd amounted to 27 pM. Further, the “NRAS/KRAS (ratio of KD value with respect to NRAS to KD value with respect to KRAS)” value in test [2] (setting [4]) was “B (a compound having 3 or more and less than 10 is denoted as B)”. Moreover, the “HRAS/KRAS (ratio of KD value with respect to HRAS to KD value with respect to KRAS)” value in test [3] (setting [5]) was “B (a compound having 3 or more and less than 10 is denoted as B)”.
With `CCO[C@@H]1C[C@H]2C(=O)NC3(CC(C)(C)C3)C(=O)N(C)[C@@H](C3CCCC3)C(=O)N(C)[C@H](C(=O)N3CCCC3)CC(=O)N(C)[C@H]3CCC/C=C/c4ccc(cc4)C[C@@H](C(=O)N(C)CC(=O)N[C@@H](CCc4cc(F)c(C(F)(F)F)c(F)c4)C(=O)N2C1)N1CC/C=C\C[C@@H](C1=O)N(C)C(=O)CN(C)C(=O)[C@H]([C@@H](C)CC)NC3=O` [PP2574, (1S,7S,11R,13S,19S,22S,26S,29S,35S,37Z,47E)-19-cyclopentyl-7-[2-[3,5-difluoro-4-(trifluoromethyl)phenyl]ethyl]-11-ethoxy-3,3′,3′,18,21,25,31,34-octamethyl-29-[(1S)-1-methylpropyl]-22-(pyrrolidine-1-carbonyl)spiro[3,6,9,15,18,21,25,28,31,34,41-undecazapentacyclo[24.15.10.2^43,46.1^35,41.0^9,13]tetrapentaconta-37,43(53),44,46(52),47-pentaene-16,1′-cyclobutane]-2,5,8,14,17,20,24,27,30,33,54-undecone], in test [1] (setting [6]), the Kd turned out to be 51 pM. The “NRAS/KRAS (ratio of KD value with respect to GDP-bound NRAS wild-type protein to KD value with respect to KRAS)” value in test [2] (SPR KD ratio NRAS/KRAS, class symbols) was “A (a compound having 10 or more and less than 20 is denoted as A)”. Besides, the “HRAS/KRAS (ratio of KD value with respect to GDP-bound HRAS wild-type protein to KD value with respect to KRAS)” value in test [3] (SPR KD ratio HRAS/KRAS, class symbols) was “A (a compound having 10 or more and less than 20 is denoted as A)”.
Turning to `CCCN1C(=O)CN(C)C(=O)CNC(=O)[C@H]([C@@H](C)CC)NC(=O)[C@H](CC(C)C)N(C)C(=O)C[C@@H](C(=O)N2CCOCC2)NC(=O)[C@H](C2CCCC2)N(C)C(=O)C2(CCC2)NC(=O)[C@@H]2CCCN2C(=O)[C@H](CCc2ccc(C(F)(F)F)c(Cl)c2)NC(=O)CN(C)C(=O)[C@@H]1Cc1ccc(C(F)(F)F)cc1` [PP0326] ([NMeL]IG[Sar][NPrPhe(4-CF3)][Sar][hPhe(3-Cl-4-CF3)]P[Ac4c][NMeGly(cPent)]D-Morpholide; lactam N-11), the Kd in test [1] (setting [6]) worked out at 1500 pM. For the same molecule, the “NRAS/KRAS (ratio of KD value for NRAS to KD value for KRAS)” value in test [2] (setting [4]) is “B (a compound having 3 or more and less than 10 is denoted as B)”. Also, in test [3] (setting [5]), the “HRAS/KRAS (ratio of KD value for HRAS to KD value for KRAS)” value is “B (a compound having 3 or more and less than 10 is denoted as B)”.
For the molecule `CCCN1C(=O)[C@@H]2[C@@H](C)CN2C(=O)[C@H](C)N(C)C(=O)[C@H]([C@@H](C)CC)NC(=O)[C@H](CC(C)C)N(C)C(=O)C[C@@H](C(=O)N2CCOCC2)N(C)C(=O)[C@H](C2CCCC2)N(C)C(=O)C2(CCCC2)NC(=O)[C@@H]2CCCN2C(=O)[C@H](CCc2ccc(C(F)(F)F)c(Cl)c2)NC(=O)CN(C)C(=O)[C@@H]1Cc1ccc(C(F)(F)F)cc1` [PP0141] ([NMeL]I[NMeA][Aze(3S-Me)][NPrPhe(4-CF3)][Sar][hPhe(3-Cl-4-CF3)]P[Ac5c][NMeGly(cPent)][NMeD]-Morpholide; lactam N-11), the Kd in test [1] (setting [6]) amounted to 550 pM. In test [2] (setting [4]), the “NRAS/KRAS (ratio of KD value for NRAS to KD value for KRAS)” value was “C (A compound having a KD ratio of 0.1 or more and less than 3 is denoted as C)”. Besides, the “HRAS/KRAS (ratio of KD value for HRAS to KD value for KRAS)” value in test [3] (setting [5]) is “B (a compound having 3 or more and less than 10 is denoted as B)”.
